Source: patent US20130029923A1, “Materials and Methods for Prevention and Treatment of Viral Infections” (priority 2009, published 2013)

Columns and labels:
[1] = system: influenza virus H1N1 (A/HK/54/98), oseltamivir-sensitive strain; type: cell-based, human influenza virus
[2] = system: prostaglandin E2 (PGE2); type: cell-based, human
[3] = system: influenza M1 protein, H9N2/G1 (A/Quail/HK/G1/97); type: cell-based, human influenza virus
[4] = system: influenza virus H9N2 (A/Quail/HK/G1/97); type: cell-based, human influenza virus
[5] = system: influenza virus H3N2 (A/H3N2/1174/99); type: cell-based, human influenza virus
[6] = system: influenza virus H9N2/G1 (A/Quail/HK/G1/97); type: cell-based, human influenza virus
[7] = system: influenza virus H9N2/G1 (A/Quail/HK/G1/97); type: cell-based, human influenza virus; remark: listed apart in the source
[8] = system: MDCK cells
[9] = system: human influenza viruses H1N1 (A/HK/54/98), H9N2 (A/Quail/HK/G1/97), H3N2 (A/H3N2/1174/99); type: cell-based, human influenza virus

CCOC(=O)C1=C[C@@H](OC(CC)CC)[C@H](NC(C)=O)[C@@H](N)C1 [Tamiflu, oseltamivir, reference compound]
suppression of virus (TCID50) compared with diluent (PBS)-treated cells [1]: more than 30 folds

COC(=O)CC1(O)C=CC(=O)C=C1 [Compound D1, jacaranone]
PGE2 levels in H9N2/G1-infected macrophages [2]: suppresses PGE2 levels in a dose-dependent manner
PGE2 levels in non-infected macrophages [2]: does not cause any changes in PGE2 levels

C[C@@H]1O[C@@H](OC[C@H]2O[C@@H](OCCc3ccc(O)c(O)c3)[C@H](O)[C@@H](O)[C@@H]2OC(=O)/C=C/c2ccc(O)c(O)c2)[C@H](O)[C@H](O)[C@H]1O [Compound A1, forsythoside A]
M1 protein expression level compared to DMSO [3]: lower
relative intensity of M1 (normalized to actin) [3]: 0.39
relative intensity of M1, DMSO-treated over treated cells [3]: more than four fold
suppression of virus replication (TCID50) compared with DMSO-treated cells [4]: ~24 fold
suppression of virus replication (TCID50) compared with DMSO-treated cells [1]: about 15 fold
suppression of virus replication (TCID50) compared with DMSO-treated cells [5]: ~12 fold
virion budding, ultrastructure [6]: slowed or abnormal budding process
increase of cells expressing viral proteins from 6 h.p.i. to 10 h.p.i. [7]: about 15%
percentages of cells expressing viral proteins vs DMSO at 6 h.p.i. [7]: no significant difference
Cytotoxicity index [8]: 1.02
cytotoxicity on MDCK cells ([8]; 100 ug/ml, 48 hours): does not exhibit significant cytotoxicity
anti-influenza virus effects in primary human blood macrophages [9]: possesses anti-influenza virus effects
